# Reference: patent publication US20240116985A1, “STAPLED PEPTIDES AND METHODS THEREOF” (priority 2020, published 2024)
# Read-outs that look alike come from different tables or passages of the source.
# Experiments:
# [1] = molecular target: T1, full-length beta-Catenin (Uniprot ID P35222) (Homo sapiens, UniProt P35222); assay: Fluorescence polarization IC50 (beta-catenin / 5FAM-TCF4 10-53 competition); format: binding; settings: fluorescence polarization; read-out: beta-Catenin FP IC50
# T1 construct: 10 nM full-length beta-Catenin (Uniprot ID P35222)
# T1 sequence (P35222 1-781): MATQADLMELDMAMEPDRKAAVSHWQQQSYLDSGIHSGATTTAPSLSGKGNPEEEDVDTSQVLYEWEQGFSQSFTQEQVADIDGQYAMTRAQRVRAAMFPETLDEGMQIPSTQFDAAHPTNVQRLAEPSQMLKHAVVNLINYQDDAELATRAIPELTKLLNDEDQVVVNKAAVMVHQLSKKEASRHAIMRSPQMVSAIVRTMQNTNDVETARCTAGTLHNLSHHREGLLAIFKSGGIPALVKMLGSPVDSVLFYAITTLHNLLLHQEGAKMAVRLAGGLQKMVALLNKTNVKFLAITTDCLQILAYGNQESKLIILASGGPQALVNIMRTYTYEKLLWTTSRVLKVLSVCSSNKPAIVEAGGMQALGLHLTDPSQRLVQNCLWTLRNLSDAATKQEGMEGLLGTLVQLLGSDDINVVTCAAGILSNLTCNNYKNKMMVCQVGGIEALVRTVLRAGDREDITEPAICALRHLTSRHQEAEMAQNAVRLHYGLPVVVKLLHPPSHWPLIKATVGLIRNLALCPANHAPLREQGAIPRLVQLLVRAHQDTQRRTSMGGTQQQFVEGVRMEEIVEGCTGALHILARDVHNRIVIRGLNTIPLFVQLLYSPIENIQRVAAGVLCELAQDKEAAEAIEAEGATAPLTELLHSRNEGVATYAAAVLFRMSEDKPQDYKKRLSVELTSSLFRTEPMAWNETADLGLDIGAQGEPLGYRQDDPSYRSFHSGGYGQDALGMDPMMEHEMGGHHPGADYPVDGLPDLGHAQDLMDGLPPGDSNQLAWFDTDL
# [2] = molecular target: T2, beta-catenin/TCF4 engagement (Homo sapiens, UniProt P35222); assay: Nano-BRET target engagement assay (B-cat-Halo & TCF4-Luc in HEK293 cells); format: cell-based; settings: absolute IC50; read-out: NanoBRET Abs IC50
# T2 construct: expressed in transfected cells; host or cells: HEK293
# T2 sequence (P35222 1-781): T1 sequence (P35222 1-781)
# [3] = Solubility in PBS; format: physicochemical
# Procedure, shortened: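 Read-out is the HPLC peak area of the supernatant from ultracentrifuged PBS solution, scaled against a 50 μM peptide DMSO injection; value reported as [(PBS area)/(DMSO area)]*50 uM.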
SMILES,IC50 [1],IC50 [2],Solubility ([3]; Solubility (uM)),Solubility [3]
"CC(=O)N1CCC[C@]12CC=CCCCC1(CCCC=CCCCOC(=O)N3CC[C@@](C(=O)N[C@@H](Cc4ccccc4F)C(=O)N[C@@H](Cc4csc5ccccc45)C(=O)N[C@@H](CCC(N)=O)C(N)=O)(C3)NC(=O)[C@H](CC(N)=O)NC(=O)[C@H](Cc3ccccc3)NC(=O)[C@H](C)NC(=O)[C@H](C)NC(=O)[C@H](CC(=O)O)NC(=O)[C@H](CC(=O)O)NC1=O)NC(=O)[C@H](CC(C)(C)C)NC(=O)[C@H](CC(=O)O)NC2=O (stereo partly drawn) [I-1320, Ac-PL3-Asp-Npg-B5-Asp-Asp-Ala-Ala-Phe-Asn-PyrS2-2FF-BztA-Gln-NH2]",10 nM,26200 nM,44 µM,–
"CC(=O)N1CCC[C@]12CC=CCCCC1(CCCC=CCCCOC(=O)N3CC[C@@](C(=O)N[C@@H](Cc4ccccc4F)C(=O)N[C@@H](Cc4csc5ccccc45)C(=O)N[C@@H](CCC(N)=O)C(N)=O)(C3)NC(=O)[C@H](CC(C)C)NC(=O)[C@H](Cc3ccccc3)NC(=O)[C@H](C)NC(=O)[C@H](C)NC(=O)[C@H](CC(=O)O)NC(=O)[C@H](CC(=O)O)NC1=O)NC(=O)[C@H](CC(C)(C)C)NC(=O)[C@H](CC(=O)O)NC2=O (stereo partly drawn) [I-1321, Ac-PL3-Asp-Npg-B5-Asp-Asp-Ala-Ala-Phe-Leu-PyrS2-2FF-BztA-Gln-NH2]",8 nM,10900 nM,48 µM,–
"CC(=O)N1CCC[C@]12CC=CCCCC1(CCCC=CCCCOC(=O)N3CC[C@@](C(=O)N[C@@H](Cc4ccccc4Br)C(=O)N[C@@H](Cc4csc5ccccc45)C(=O)N[C@@H](CCC(N)=O)C(N)=O)(C3)NC(=O)[C@H](CC(N)=O)NC(=O)[C@H](Cc3ccccc3)NC(=O)[C@H](C)NC(=O)[C@H](C)NC(=O)[C@H](CC(=O)O)NC(=O)[C@H](CC(=O)O)NC1=O)NC(=O)[C@H](CC(C)(C)C)NC(=O)[C@H](CC(=O)O)NC2=O (stereo partly drawn) [I-1323, Ac-PL3-Asp-Npg-B5-Asp-Asp-Ala-Ala-Phe-Asn-PyrS2-2BrF-BztA-Gln-NH2]",6 nM,11700 nM,48 µM,–
"CC(=O)N1CCC[C@]12CC=CCCCC1(CCCC=CCCCOC(=O)N3CC[C@@](C(=O)N[C@@H](Cc4ccsc4)C(=O)N[C@@H](Cc4csc5ccccc45)C(=O)N[C@@H](CCC(N)=O)C(N)=O)(C3)NC(=O)[C@H](Cc3ccccc3C(F)(F)F)NC(=O)[C@H](Cc3ccccc3)NC(=O)[C@H](C)NC(=O)[C@H](C)NC(=O)[C@H](CC(=O)O)NC(=O)[C@H](CC(=O)O)NC1=O)NC(=O)[C@H](CC(C)(C)C)NC(=O)[C@H](CC(=O)O)NC2=O (stereo partly drawn) [I-1363, Ac-PL3-Asp-Npg-B5-Asp-Asp-Ala-Ala-Phe-2F3MeF-PyrS2-3Thi-BztA-Gln-NH2]",9 nM,5500 nM,12 µM,–
"CC(=O)N1CCC[C@]12CC=CCCCC1(CCCC=CCCCOC(=O)N3CC[C@@](C(=O)N[C@@H](Cc4ccccc4Cl)C(=O)N[C@@H](Cc4csc5ccccc45)C(=O)N[C@@H](CCC(N)=O)C(N)=O)(C3)NC(=O)[C@H](Cc3cccc(C(F)(F)F)c3)NC(=O)[C@H](Cc3ccccc3)NC(=O)[C@H](C)NC(=O)[C@H](C)NC(=O)[C@H](CC(=O)O)NC(=O)[C@H](CC(=O)O)NC1=O)NC(=O)[C@H](CC(C)(C)C)NC(=O)[C@H](CC(=O)O)NC2=O (stereo partly drawn) [I-1368, Ac-PL3-Asp-Npg-B5-Asp-Asp-Ala-Ala-Phe-3F3MeF-PyrS2-2C1F-BztA-Gln-NH2]",44 nM,14200 nM,–,10 µM
"CC(=O)N1CCC[C@]12CC=CCCCC1(CCCC=CCCCOC(=O)N3CC[C@@](C(=O)N[C@@H](Cc4ccccc4Cl)C(=O)N[C@@H](Cc4csc5ccccc45)C(=O)N[C@@H](CCC(N)=O)C(N)=O)(C3)NC(=O)[C@H](Cc3ccc(C(F)(F)F)cc3)NC(=O)[C@H](Cc3ccccc3)NC(=O)[C@H](C)NC(=O)[C@H](C)NC(=O)[C@H](CC(=O)O)NC(=O)[C@H](CC(=O)O)NC1=O)NC(=O)[C@H](CC(C)(C)C)NC(=O)[C@H](CC(=O)O)NC2=O (stereo partly drawn) [I-1369, Ac-PL3-Asp-Npg-B5-Asp-Asp-Ala-Ala-Phe-4F3MeF-PyrS2-2C1F-BztA-Gln-NH2]",29 nM,9900 nM,–,10 µM
"CC(=O)N1CCC[C@]12CC=CCCCC1(CCCC=CCCCOC(=O)N3CC[C@@](C(=O)N[C@@H](Cc4ccsc4)C(=O)N[C@@H](Cc4csc5ccccc45)C(=O)N[C@H](CO)[C@@H](C)O)(C3)NC(=O)[C@H](Cc3ccccc3C(F)(F)F)NC(=O)[C@H](Cc3ccccc3)NC(=O)[C@H](C)NC(=O)[C@H](C)NC(=O)[C@H](CC(=O)O)NC(=O)[C@H](CC(=O)O)NC1=O)NC(=O)[C@H](CC(C)(C)C)NC(=O)[C@H](CC(=O)O)NC2=O (stereo partly drawn) [I-1370, Ac-PL3-Asp-Npg-B5-Asp-Asp-Ala-Ala-Phe-2F3MeF-PyrS2-3Thi-BztA-Thro1]",18 nM,10000 nM,–,10 µM

# More lines, in order of falling IC50 [1], values ahead:
IC50 [1],IC50 [2],Solubility ([3]; Solubility (uM)),Solubility [3],SMILES
31 nM,7800 nM,–,10 µM,"CC(=O)N1CCC[C@]12CC=CCCCC1(CCCC=CCCCOC(=O)N3CC[C@@](C(=O)N[C@@H](Cc4ccccc4Cl)C(=O)N[C@@H](Cc4csc5ccccc45)C(=O)N[C@@H](CCC(N)=O)C(N)=O)(C3)NC(=O)[C@H](Cc3ccccc3C(F)(F)F)NC(=O)[C@H](Cc3ccccc3)NC(=O)[C@H](C)NC(=O)[C@H](C)NC(=O)[C@H](CC(=O)O)NC(=O)[C@H](CC(=O)O)NC1=O)NC(=O)[C@H](CC(C)(C)C)NC(=O)[C@H](CC(=O)O)NC2=O (stereo partly drawn) [I-1367, Ac-PL3-Asp-Npg-B5-Asp-Asp-Ala-Ala-Phe-2F3MeF-PyrS2-2C1F-BztA-Gln-NH2]"
22 nM,10900 nM,–,10 µM,"CC(=O)N1CCC[C@]12CC=CCCCC1(CCCC=CCCCOC(=O)N3CC[C@@](C(=O)N[C@@H](Cc4ccsc4)C(=O)N[C@@H](Cc4csc5ccccc45)C(=O)N[C@H](CO)[C@@H](C)O)(C3)NC(=O)[C@H](Cc3cccc(C(F)(F)F)c3)NC(=O)[C@H](Cc3ccccc3)NC(=O)[C@H](C)NC(=O)[C@H](C)NC(=O)[C@H](CC(=O)O)NC(=O)[C@H](CC(=O)O)NC1=O)NC(=O)[C@H](CC(C)(C)C)NC(=O)[C@H](CC(=O)O)NC2=O (stereo partly drawn) [I-1371, Ac-PL3-Asp-Npg-B5-Asp-Asp-Ala-Ala-Phe-3F3MeF-PyrS2-3Thi-BztA-Thro1]"
11 nM,9100 nM,33 µM,–,"CC(=O)N1CCC[C@]12CC=CCCCC1(CCCC=CCCCOC(=O)N3CC[C@@](C(=O)N[C@@H](Cc4ccccc4F)C(=O)N[C@@H](Cc4csc5ccccc45)C(=O)N[C@@H](CCC(N)=O)C(N)=O)(C3)NC(=O)[C@H](Cc3ccccc3)NC(=O)[C@H](Cc3ccccc3)NC(=O)[C@H](C)NC(=O)[C@H](C)NC(=O)[C@H](CC(=O)O)NC(=O)[C@H](CC(=O)O)NC1=O)NC(=O)[C@H](CC(C)(C)C)NC(=O)[C@H](CC(=O)O)NC2=O (stereo partly drawn) [I-1322, Ac-PL3-Asp-Npg-B5-Asp-Asp-Ala-Ala-Phe-Phe-PyrS2-2FF-BztA-Gln-NH2]"
9 nM,10500 nM,17 µM,–,"CC(=O)N1CCC[C@]12CC=CCCCC1(CCCC=CCCCOC(=O)N3CC[C@@](C(=O)N[C@@H](Cc4ccsc4)C(=O)N[C@@H](Cc4csc5ccccc45)C(=O)N[C@@H](CCC(N)=O)C(N)=O)(C3)NC(=O)[C@H](Cc3cccc(C(F)(F)F)c3)NC(=O)[C@H](Cc3ccccc3)NC(=O)[C@H](C)NC(=O)[C@H](C)NC(=O)[C@H](CC(=O)O)NC(=O)[C@H](CC(=O)O)NC1=O)NC(=O)[C@H](CC(C)(C)C)NC(=O)[C@H](CC(=O)O)NC2=O (stereo partly drawn) [I-1364, Ac-PL3-Asp-Npg-B5-Asp-Asp-Ala-Ala-Phe-3F3MeF-PyrS2-3Thi-BztA-Gln-NH2]"
9 nM,9700 nM,22 µM,–,"CC(=O)N1CCC[C@]12CC=CCCCC1(CCCC=CCCCOC(=O)N3CC[C@@](C(=O)N[C@@H](Cc4ccsc4)C(=O)N[C@@H](Cc4csc5ccccc45)C(=O)N[C@@H](CCC(N)=O)C(N)=O)(C3)NC(=O)[C@H](Cc3ccc(C(F)(F)F)cc3)NC(=O)[C@H](Cc3ccccc3)NC(=O)[C@H](C)NC(=O)[C@H](C)NC(=O)[C@H](CC(=O)O)NC(=O)[C@H](CC(=O)O)NC1=O)NC(=O)[C@H](CC(C)(C)C)NC(=O)[C@H](CC(=O)O)NC2=O (stereo partly drawn) [I-1365, Ac-PL3-Asp-Npg-B5-Asp-Asp-Ala-Ala-Phe-4F3MeF-PyrS2-3Thi-BztA-Gln-NH2]"
7 nM,7500 nM,–,10 µM,"CC(=O)N1CCC[C@]12CC=CCCCC1(CCCC=CCCCOC(=O)N3CC[C@@](C(=O)N[C@@H](Cc4ccccc4Cl)C(=O)N[C@@H](Cc4csc5ccccc45)C(=O)N[C@@H](CCC(N)=O)C(N)=O)(C3)NC(=O)[C@H](Cc3ccccc3)NC(=O)[C@H](Cc3ccccc3)NC(=O)[C@H](C)NC(=O)[C@H](C)NC(=O)[C@H](CC(=O)O)NC(=O)[C@H](CC(=O)O)NC1=O)NC(=O)[C@H](CC(C)(C)C)NC(=O)[C@H](CC(=O)O)NC2=O (stereo partly drawn) [I-1366, Ac-PL3-Asp-Npg-B5-Asp-Asp-Ala-Ala-Phe-Phe-PyrS2-2C1F-BztA-Gln-NH2]"
